pIC50: −log10 of the molar value.
What was measured:
Pim-2 = Pim-2 (Homo sapiens (Human), UniProt Q9P1W9); experiment: Pim-2 kinase assay (Pim enzyme assays, Example A); format: biochemical; conditions: 1 mM ATP, CREBtide peptide substrate; read-out: PIM2 IC50
Procedure: Pim-2 kinase assay-20 μL reactions were run in white 384 well polystyrene plates dotted with 0.8 μL compound/DMSO in the assay buffer (50 mM Tris, pH 7.5, 0.01% Tween-20, 5 mM mgCl2, 0.01% BSA, 5 mM DTT), containing 0.05 μM Fluorescein-labeled CREBtide peptide substrate (Invitrogen PV3508), 1 mM ATP, and 1 nM enzyme (Invitrogen PV3649) for 2 h at 25° C. Reactions were stopped by addition of 10 μL TR-FRET Dilution Buffer (Invitrogen PV3574) with 30 mM EDTA and 1.5 nM LanthaScreen Tb-CREB pSer133 antibody (Invitrogen PV3566). After 30 min. incubation at room temperature, plates were read on a PHERAstar FS plate reader (BMG Labtech).

Pim-1 = Pim-1 (Homo sapiens (Human), UniProt P11309); experiment: Pim-1 kinase assay (Pim enzyme assays, Example A); format: biochemical; conditions: 1 mM ATP, BAD peptide substrate; read-out: PIM1 IC50
Pim-1, sequence (P11309 whole entry): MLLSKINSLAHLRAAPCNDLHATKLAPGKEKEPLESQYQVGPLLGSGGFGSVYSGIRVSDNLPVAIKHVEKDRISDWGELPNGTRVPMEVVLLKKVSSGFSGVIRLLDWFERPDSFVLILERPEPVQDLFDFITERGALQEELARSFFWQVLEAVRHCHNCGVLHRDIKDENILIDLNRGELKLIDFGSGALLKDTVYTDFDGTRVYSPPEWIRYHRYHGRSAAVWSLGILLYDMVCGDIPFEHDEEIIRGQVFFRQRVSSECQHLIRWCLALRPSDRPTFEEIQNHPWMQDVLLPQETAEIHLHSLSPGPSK
Procedure: (§1) Pim-1 and Pim-3 kinase assays-20 μL reactions were run in white 384 well polystyrene plates dotted with 0.8 μL compound/DMSO in the assay buffer (50 mM Tris, pH 7.5, 0.01% Tween-20, 5 mM mgCl2, 0.01% BSA, 5 mM DTT), containing 0.05 μM Biotin-labeled BAD peptide substrate (AnaSpec 62269), 1 mM ATP, and 2.5 pM (Pim-1, Invitrogen PV3503) or 1.25 pM (Pim-3, Millipore 14-738) enzyme for 1 h at 25° C. Reactions were stopped by addition of 10 μL STOP Buffer (150 mM Tris, pH=7.5, 150 mM NaCl, 75 mM EDTA, 0.01% Tween-20, 0.3% BSA,) supplemented with Phospho-Bad (Ser112) Antibody (Cell Signaling 9291) diluted 666-fold, and Streptavidin donor beads (PerkinElmer 6760002) along with Protein-A acceptor beads (PerkinElmer 6760137) at 15 μg/mL each. Supplementation of the STOP buffer with beads and stopping the reactions were done under reduced light. Prior to the stopping reactions STOP buffer with beads was preincubated for 1 h in the dark at room temperature. After stopping the reactions, plates were incubated for 1 h in the dark at room temperature before reading on a PHERAstar FS plate reader (BMG Labtech) under reduced light.

pBAD in KMS.12.BM cells = experiment: Pim pBAD signaling assay in KMS.12.BM cells (Example B); format: cell-based; conditions: Homo sapiens, 2.5 h incubation, pBAD ELISA
Procedure: KG-1A cells are purchased from ATCC (Manassas, Va.) and KMS.12.BM cells are purchased from NIBIO, JCRB cell bank (Tokyo, Japan) and maintained in the culture mediums recommended, RPMI, 10% FBS and IMDM 20% FBS (Mediatech, Manassas, Va.) respectively. To measure the pBAD inhibitory activity of the compounds, both cell lines are plated with the culture medium (1×10^6/well/100 μL for KG1A and 4×10^5 cells/well/in 100 μL for KMS12BM) into 96-well V bottom polypropylene plates (Matrix, Thermo Fisher, USA) and incubated 30 min. at 37° C. to normalize cell signaling from handling. Test compounds are added at an appropriate concentration range and further incubated for 2.5 h for KMS.12.BM cells and 4 h for KG1-A cells. Plates are centrifuged at 2000 RPM for 10 min. and supernatants aspirated. 100 μL lysis buffer with protease inhibitors (Cell Signaling Technologies, Danver, Mass., Sigma, St Louis Mo., EMD, USA) is added to the pellets, mixed well and set on ice for 30 min. Lysates are frozen overnight at −80° C. To measure the pBAD activity, a Cell Signaling ELISA kit (Cell Signaling Path Scan phosphor pBAD ELISA) is utilized. 50 μL of the lysate is tested per the ELISA protocol and the data analysis is performed by software on a SpectrMax5 plate reader (Molecular Devices, Sunnyvale, Calif.). IC50 determination is performed by fitting the curve of percent inhibition versus the log of the inhibitor concentration using the GraphPad Prism 5.0 software.

Pim-3 = Pim-3 (Homo sapiens (Human), UniProt Q86V86); experiment: Pim-3 kinase assay (Pim enzyme assays, Example A); format: biochemical; conditions: 1 mM ATP, BAD peptide substrate; read-out: PIM3 IC50
Procedure: as §1

Pim-2, sequence (Q9P1W9 whole entry): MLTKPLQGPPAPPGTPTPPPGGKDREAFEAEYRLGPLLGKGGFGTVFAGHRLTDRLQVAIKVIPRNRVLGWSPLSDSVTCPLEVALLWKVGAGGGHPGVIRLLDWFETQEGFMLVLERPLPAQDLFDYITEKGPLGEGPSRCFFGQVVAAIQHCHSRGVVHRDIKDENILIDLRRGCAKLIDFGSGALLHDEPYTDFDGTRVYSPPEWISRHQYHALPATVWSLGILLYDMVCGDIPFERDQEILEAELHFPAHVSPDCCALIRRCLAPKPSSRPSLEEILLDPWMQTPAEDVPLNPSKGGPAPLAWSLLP

| SMILES | pIC50 (Pim-2) | pIC50 (Pim-1) | pIC50 (pBAD in KMS.12.BM cells) | pIC50 (Pim-3) |
| --- | --- | --- | --- | --- |
| C[C@H]1CN(c2ccncc2NC(=O)c2ccc3ccc(C4CCOCC4)cc3n2)C[C@@H](N)[C@@H]1O [Example 11, N-{4-[(3R,4R,5S)-3-Amino-4-hydroxy-5-methylpiperidin-1-yl]pyridin-3-yl}-7-(tetrahydro-2H-pyran-4-yl)quinoline-2-carboxamide] | 6.00 to 7.00 | ≥ 8.00 | 6.60 to 7.30 | ≥ 8.00 |
| C[C@@H]1C[C@H](N)CN(c2ccncc2NC(=O)c2ccc3ccc(N4CCOCC4)cc3n2)C1 [Example 13, N-{4-[(3S,5R)-3-Amino-5-methylpiperidin-1-yl]pyridin-3-yl}-7-morpholin-4-ylquinoline-2-carboxamide] | ≥ 7.00 | ≥ 8.00 | ≥ 7.30 | ≥ 8.00 |
| C[C@@H]1C[C@H](N)CN(c2ccncc2NC(=O)c2ccc3ncc(C4CCOCC4)cc3n2)C1 [Example 3, N-{4-[(3S,5R)-3-Amino-5-methylpiperidin-1-yl]pyridin-3-yl}-7-(tetrahydro-2H-pyran-4-yl)-1,5-naphthyridine-2-carboxamide] | 6.00 to 7.00 | ≥ 8.00 | ≥ 7.30 | ≥ 8.00 |
| C[C@H]1CN(c2ccncc2NC(=O)c2ccc3ccc(N4CCC(c5ccncc5)CC4)cc3n2)C[C@@H](N)[C@@H]1O [Example 20, N-{4-[(3R,4R,5S)-3-Amino-4-hydroxy-5-methylpiperidin-1-yl]pyridin-3-yl}-7-(4-pyridin-4-ylpiperidin-1-yl)quinoline-2-carboxamide] | ≥ 7.00 | ≥ 8.00 | 6.60 to 7.30 | ≥ 8.00 |
| COc1ccc(-c2cnc3ccc(C(=O)Nc4cnccc4N4C[C@@H](N)[C@H](O)[C@@H](C)C4)nc3c2)cn1 [Example 7, N-{4-[(3R,4R,5S)-3-Amino-4-hydroxy-5-methylpiperidin-1-yl]pyridin-3-yl}-7-(6-methoxypyridin-3-yl)-1,5-naphthyridine-2-carboxamide] | ≥ 7.00 | ≥ 8.00 | ≥ 7.30 | ≥ 8.00 |
| C[C@H]1CN(c2ccncc2NC(=O)c2ccc3ccc(N4CCC(N5CCOCC5)CC4)cc3n2)C[C@@H](N)[C@@H]1O [Example 26, N-{4-[(3R,4R,5S)-3-Amino-4-hydroxy-5-methylpiperidin-1-yl]pyridin-3-yl}-7-(4-morpholin-4-ylpiperidin-1-yl)quinoline-2-carboxamide] | ≥ 7.00 | ≥ 8.00 | 6.60 to 7.30 | ≥ 8.00 |
| CC(C)c1cnc2ccc(C(=O)Nc3cnccc3N3C[C@H](C)C[C@H](N)C3)nc2c1 [Example 2, N-{4-[(3S,5R)-3-Amino-5-methylpiperidin-1-yl]pyridin-3-yl}-7-isopropyl-1,5-naphthyridine-2-carboxamide] | ≥ 7.00 | ≥ 8.00 | ≥ 7.30 | ≥ 8.00 |
| C[C@H]1CN(c2ccncc2NC(=O)c2ccc3ccc(-c4ccc(N5CCOCC5)nc4)cc3n2)C[C@@H](N)[C@@H]1O [Example 46, N-{4-[(3R,4R,5S)-3-Amino-4-hydroxy-5-methylpiperidin-1-yl]pyridin-3-yl}-7-(6-morpholin-4-ylpyridin-3-yl)quinoline-2-carboxamide] | ≥ 7.00 | ≥ 8.00 | ≥ 7.30 | ≥ 8.00 |
| C[C@H]1CN(c2ccncc2NC(=O)c2ccc3ccc(N4CCOCC4)cc3n2)C[C@@H](N)[C@@H]1O [Example 12, N-{4-[(3R,4R,5S)-3-Amino-4-hydroxy-5-methylpiperidin-1-yl]pyridin-3-yl}-7-morpholin-4-ylquinoline-2-carboxamide] | ≥ 7.00 | ≥ 8.00 | ≥ 7.30 | ≥ 8.00 |
| C[C@@H]1C[C@H](N)CN(c2ccncc2NC(=O)c2ccc3ccc(N4CCC(O)CC4)cc3n2)C1 [Example 50, N-(4-((3S,5R)-3-Amino-5-methylpiperidin-1-yl)pyridin-3-yl)-7-(4-hydroxypiperidin-1-yl)quinoline-2-carboxamide] | ≥ 7.00 | ≥ 8.00 | ≥ 7.30 | ≥ 8.00 |
| COC1CCN(c2ccc3ccc(C(=O)Nc4cnccc4N4C[C@@H](N)[C@H](O)[C@@H](C)C4)nc3c2)CC1 [Example 24, N-{4-[(3R,4R,5S)-3-Amino-4-hydroxy-5-methylpiperidin-1-yl]pyridin-3-yl}-7-(4-methoxypiperidin-1-yl)quinoline-2-carboxamide] | ≥ 7.00 | ≥ 8.00 | ≥ 7.30 | ≥ 8.00 |
| COc1cc(F)c(-c2cnc3ccc(C(=O)Nc4cnccc4N4C[C@H](C)C[C@H](N)C4)nc3c2)c(F)c1 [Example 4, N-{4-[(3S,5R)-3-Amino-5-methylpiperidin-1-yl]pyridin-3-yl}-7-(2,6-difluoro-4-methoxyphenyl)-1,5-naphthyridine-2-carboxamide] | ≥ 7.00 | ≥ 8.00 | ≥ 7.30 | ≥ 8.00 |
| CCn1cc(-c2ccc3ccc(C(=O)Nc4cnccc4N4C[C@@H](N)[C@H](O)[C@@H](C)C4)nc3c2)cn1 [Example 44, N-{4-[(3R,4R,5S)-3-Amino-4-hydroxy-5-methylpiperidin-1-yl]pyridin-3-yl}-7-(1-ethyl-1H-pyrazol-4-yl)quinoline-2-carboxamide] | ≥ 7.00 | ≥ 8.00 | ≥ 7.30 | ≥ 8.00 |
| C[C@@H]1C[C@H](N)CN(c2ccncc2NC(=O)c2ccc3ccc(N4CCC(C#N)CC4)cc3n2)C1 [Example 17, N-{4-[(3S,5R)-3-Amino-5-methylpiperidin-1-yl]pyridin-3-yl}-7-(4-cyanopiperidin-1-yl)quinoline-2-carboxamide] | 6.00 to 7.00 | ≥ 8.00 | 6.60 to 7.30 | ≥ 8.00 |
| C[C@H]1CN(c2ccncc2NC(=O)c2ccc3ccc(-c4cccnc4)cc3n2)C[C@@H](N)[C@@H]1O [Example 47, N-(4-((3R,4R,5S)-3-Amino-4-hydroxy-5-methylpiperidin-1-yl)pyridin-3-yl)-7-(pyridin-3-yl)quinoline-2-carboxamide] | ≥ 7.00 | ≥ 8.00 | ≥ 7.30 | ≥ 8.00 |
| C[C@@H]1C[C@H](N)CN(c2ccncc2NC(=O)c2ccc3ccc(N4CCC(N5CCOCC5)CC4)cc3n2)C1 [Example 27, N-{4-[(3S,5R)-3-Amino-5-methylpiperidin-1-yl]pyridin-3-yl}-7-(4-morpholin-4-ylpiperidin-1-yl)quinoline-2-carboxamide] | 6.00 to 7.00 | ≥ 8.00 | 6.60 to 7.30 | ≥ 8.00 |

From patent US9580418B2, “Bicyclic aromatic carboxamide compounds useful as Pim kinase inhibitors” (Incyte Corporation, priority 2014, dated 2017)
